Measured values as given in patent publication US20210038577A1, “THIOREDOXIN REDUCTASE INHIBITORS FOR USE IN THE TREATMENT OF CANCER” (Cinda Pharma AB, priority 2018, published 2021).

Test system: 4T1-luc2 murine tumor cells
Test: 4T1-luc2 tumors in mammary fat pad of immunocompetent BALB/c mice
Assay type: in vivo
Conditions: 5 mg/kg 5/2 for 15 days, bioluminescence
Protocol: Female BALB/c immunocompetent mice were implanted with 1×10^5 4T1-luc2 murine tumor cells into the mammary fat pad. Upon growth of the tumors between 60-90 mm^3 the animals were selected for imaging. Mice were randomized and enrolled for treatment based on imaging flux values. Mice were treated once daily with 5 mg/kg of either OT-1096 or vehicle control using a 5/2 (five days on, two days off) dosing protocol. Upon days 1, 8, and 15 whole body imaging was performed on the mice to follow tumor cell luminescence. Analysis consists of primary tumor luminescence in mice. Each mouse was normalized to its own baseline luminescence from day 1. […] Data is represented as mean±SEM. Statistical significance (p<0.05) was determined using a Mann-Whitney test. The relative luminescence flux for mice treated with OT-1096 was significant compared to vehicle at day 15.
Athymic nude mice were inoculated orthotopically with 5×10^6 MDA-MB-231 breast cancer cells into the mammary fat pad, and randomized for treatment when tumors reached an average volume of 80-120 mm^3 (N=12 in each group). […] Xenograft tumor volume was assessed using caliper measurements for 25 days. […] Xenograft tumor volume was assessed using caliper measurements for 25 days. […] Statistical significance (p<0.05) was determined using a Two-way repeated measures ANOVA with Sidak's multiple comparison test. […]

With `CCCCCCCCS(=O)(=O)c1nc(OC)ccc1[N+](=O)[O-]` [OT-1096, 6-methoxy-3-nitro-2-(octylsulfonyl)pyridine] the “% TGI” value was 54%.
